# What was measured:
# [1] = system: HeLa cells; experiment: Azide metabolic labeling of HeLa cells, detected with DBCO-FAM by flow cytometry; format: cell-based; conditions: AzNAM 125 μM for 20 hours, versus cells receiving no azide-modified sugar (FIG. 2)
# Description: In separate trials, HeLa cells were added to wells of a 12-well plate at 10,000 cells/well, and cultured for 72 hours under normal conditions. The wells were then washed with 1 ml of PBS, and 0.5 ml of DMEM-10% FBS was added. AzNAM was then added to a final concentration of 125 μM, with cells receiving no azide-modified sugar as controls. After 20 hours, cells were harvested with CellStripper (250 μl/well), washed with PBS, and subjected to flow analysis.
# [2] = system: HeLa cells; experiment: Azide metabolic labeling of HeLa cells, detected with DBCO-FAM in a fluorescent plate reader; format: cell-based; conditions: AzNAM 25-125 μM for 20 hours, then DBCO-FAM 10 μM for 1 hour, 96-well plate reader (FIG. 1)
# Description: Initially, cells are cultured in a suitable culture vessel such that their level of confluency at the time of addition of the azide-modified sugar AzNAM is not more than 80%.
# In particular, HeLa cells were plated in 6-well plates (2.5×10^4 cells/well) and incubated for 48 hours in DMEM-10% FBS medium in a standard 5% CO2 atmosphere. Medium from each well was removed, and each well was washed with 2 ml of phosphate buffered saline (PBS), and fresh DMEM-FBS (1 ml) added. Subsequently, varying amounts of AzNAM (solubilized in DMSO) were added to the wells in small (10 μl) volumes to produce the desired final concentrations in the range 25-125 μM. After an additional 20 hours incubation, the medium in each well was removed, and the wells were washed with 2 ml of PBS, followed by addition of 1 ml of PBS. Then, a fluorescent bio-orthogonally azide-reactive reagent DBCO-FAM (Broadpharm) was directly added to each well to produce a final concentration of 10 μM.
# Plates with added DBCO-FAM were protected from bright light and incubated for 1 hour at room temperature. Supernatants in each well were then removed, and each well was washed twice with 2 ml of PBS. […] After pelleting and washing in PBS, cells were resuspended in 150 μl of PBS and counted. Defined numbers in 50 μl volumes in a 96-well Blackwell plate (Corning) were assayed for fluorescence in a fluorescent plate reader (Tecan).
substance,measurement,setting,value
azido-N-acetylmannosamine [AzNAM],flow cytometry peak shift after reaction with DBCO-FAM,[1],marked and well-demarcated peak shifts were observed
same,cell-associated fluorescence after reaction with DBCO-FAM,[2],cell-associated fluorescence increased as a function of the levels of AzNAM

# Source: patent US20230406839A1, “Bifunctional Compounds And Methods Of Using The Same” (The General Hospital Corporation, priority 2020, published 2023)
